Measured values: US8916551B2, “Heterocyclic compound and use thereof” (Takeda Pharmaceutical Company Limited, priority 2010, dated 2014)

These molecules were tested against T1, AMPA receptor (human GluR1 flip/stargazin expressed in CHO-K1 cells) (Homo sapiens, UniProt P42261) (assay: AMPA receptor function enhancing activity using calcium influx as index). Conditions: test compound 30 μM with 3 mM glutamic acid, change in fluorescence level in 3 min, 100% = 3 mM glutamic acid + 300 μM cyclothiazide, 0% = 3 mM glutamic acid only.
T1 construct: expressed in transfected cells; host or cells: CHO-K1
T1 sequence (P42261 19-906 isoform P42261-2 limits assumed): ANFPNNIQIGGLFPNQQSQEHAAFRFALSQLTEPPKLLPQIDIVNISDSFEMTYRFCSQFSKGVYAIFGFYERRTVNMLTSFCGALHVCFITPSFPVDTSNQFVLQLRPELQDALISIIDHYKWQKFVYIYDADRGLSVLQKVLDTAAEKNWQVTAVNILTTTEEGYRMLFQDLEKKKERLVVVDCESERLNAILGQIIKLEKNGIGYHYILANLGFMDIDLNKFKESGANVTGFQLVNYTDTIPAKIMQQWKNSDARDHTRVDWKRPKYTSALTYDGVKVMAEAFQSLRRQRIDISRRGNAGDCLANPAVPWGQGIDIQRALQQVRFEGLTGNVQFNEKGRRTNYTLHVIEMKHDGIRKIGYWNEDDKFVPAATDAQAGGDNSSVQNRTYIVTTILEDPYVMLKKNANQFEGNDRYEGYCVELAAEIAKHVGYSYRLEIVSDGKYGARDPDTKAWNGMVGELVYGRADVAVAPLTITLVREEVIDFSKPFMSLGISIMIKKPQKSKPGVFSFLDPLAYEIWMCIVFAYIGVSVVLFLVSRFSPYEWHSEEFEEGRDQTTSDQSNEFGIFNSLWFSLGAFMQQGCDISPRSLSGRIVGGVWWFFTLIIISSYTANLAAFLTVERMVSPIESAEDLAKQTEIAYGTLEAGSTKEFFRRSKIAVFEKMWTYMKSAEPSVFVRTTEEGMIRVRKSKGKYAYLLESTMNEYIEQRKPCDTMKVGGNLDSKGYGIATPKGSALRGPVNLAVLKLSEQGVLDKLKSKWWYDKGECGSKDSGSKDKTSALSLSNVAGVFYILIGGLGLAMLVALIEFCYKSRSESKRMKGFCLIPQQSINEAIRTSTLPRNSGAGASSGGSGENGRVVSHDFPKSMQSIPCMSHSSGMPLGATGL
T1 sequence (Q9Y698 whole entry partner): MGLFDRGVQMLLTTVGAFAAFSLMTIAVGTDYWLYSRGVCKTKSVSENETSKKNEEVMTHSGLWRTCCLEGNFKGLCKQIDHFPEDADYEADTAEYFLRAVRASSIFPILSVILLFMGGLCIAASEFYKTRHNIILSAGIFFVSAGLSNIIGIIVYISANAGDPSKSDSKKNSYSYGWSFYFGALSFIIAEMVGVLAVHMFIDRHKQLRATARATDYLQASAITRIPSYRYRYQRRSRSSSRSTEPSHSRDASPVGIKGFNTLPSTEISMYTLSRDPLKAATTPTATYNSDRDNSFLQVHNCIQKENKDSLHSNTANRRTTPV
Format: cell-based
Description: Human GluR1 flip cDNA was amplified by PCR using forward primer […] (SEQ ID NO: 1) and reverse primer […] (SEQ ID NO: 2) artificially synthesized using human brain-derived cDNA (BD Bio science) as a template. The amplified product was digested with restriction enzymes EcoRI, NotI (TAKARA SHUZO CO. LTD.), and incorporated into the same site of pcDNA3.1(+) (Invitrogen) to construct pcDNA3.1(+)/human GluR1 flip gene. Human stargazin cDNA was amplified by PCR using forward primer […] (SEQ ID NO: 3) and reverse primer […] (SEQ ID NO: 4) artificially synthesized using human hippocampus cDNA as a template. The amplified product was digested with restriction enzymes XhoI, BamHI (TAKARA SHUZO CO. LTD.), and incorporated into the same site of pcDNA3.1(−) (Invitrogen) to construct pcDNA3.1 Zeo(−)/human stargazin gene.
CHO-K1 cells passaged in a culture medium (Ham's F12 medium (Invitrogen) added with 10% inactivated fetal bovine serum (Morgate) and penicillin, streptomycin (Invitrogen)) were detached with 0.05% trypsin, 0.53 mM EDTA (Invitrogen) diluted with D-PBS(−). The detached cells were suspended in a culture medium, and recovered by a centrifugation operation at 1,000 rpm. The recovered cells were suspended again in D-PBS(−), and added to a 0.4 cm electroporation cuvette (BioRad). pcDNA3.1(+)/human GluR1 flip gene (5 μg) and pcDNA3.1 Zeo(−)/human stargazin gene (15 μg) were added, and the mixture was introduced into CHO-K1 cells using Gene Pulser II (BioRad) under the conditions of 950 μFd, […]. The introduced cells were cultured overnight in a culture medium and, the next day, plated in a 96 well plate at 250 cells/well using a selection medium (culture medium added with Zeocin (Invitrogen) to 250 μg/mL). Clones showing drug resistance were selected, and GluR1 flip/stargazin expressing clones were selected by an assay method using calcium influx as an index as shown below.
CHO-K1/GluR1 flip/stargazin expressing cells were plated on a 96 well black transparent bottom plate (Costar) at 2×10^4 cells/well, and cultured in a 37° C., CO2 incubator (SANYO Electric Co., Ltd.) for 2 days. The medium in the cell plate was removed, and assay buffer A (D-MEM (Invitrogen), 0.1% BSA (Serogical Protein), 20 mM HEPES (Invitrogen)) was added at 50 μL/well. A calcium indicator (Calcium 4 Assay Kit, Invitrogen) added with 2.5 mM probenecid (Invitrogen) was added at 50 μL/well and the well was left standing in 37° C., CO2 incubator for 1 hr. The cell plate was set in CellLux (PerkinElmer), a mixture (50 μL) of 9 mM glutamic acid diluted with assay buffer B (HBSS (Invitrogen), 0.1% BSA, 20 mM HEPES) (final concentration 3 mM) and a test compound (test compound concentration 30 μM) was added, and the amount of change in fluorescence level in 3 min was measured. In the definition here, the amount of change in fluorescence level of well added with glutamic acid at final concentration 3 mM and 300 μM cyclothiazide (TOCRIS) is 100%, the amount of change in fluorescence level of well added only with glutamic acid at final concentration 3 mM is 0%, and the compound activity was calculated according to the following formula. activity(%)=(X−C)/(T−C)×100 T: amount of change in fluorescence level of well added with glutamic acid at final concentration 3 mM and 300 μM cyclothiazide C: amount of change in fluorescence level of well added only with glutamic acid at final concentration 3 mM X: amount of change in fluorescence level of well added with test compound

Structure (SMILES) | activity (%)
CC1CC(c2ccc(Oc3cccc(C(C)(F)F)c3)cc2)C2=NS(=O)(=O)CCN2C1 (racemic) [Example 172, 9-{4-[3-(1,1-difluoroethyl)phenoxy]phenyl}-7-methyl-3,4,6,7,8,9-hexahydropyrido[2,1-c][1,2,4]thiadiazine 2,2-dioxide] | 74%
CC1CC(c2ccc(Oc3cccc(C(C)(F)F)c3)cc2)C2=NS(=O)(=O)CCN2C1 (racemic) [Example 173, 9-{4-[3-(1,1-difluoroethyl)phenoxy]phenyl}-7-methyl-3,4,6,7,8,9-hexahydropyrido[2,1-c][1,2,4]thiadiazine 2,2-dioxide] | 68%

Same assay, conditions: test compound 30 μM with glutamic acid final 3 mM, change in fluorescence in 3 min, 100% = 3 mM glutamic acid + 300 μM cyclothiazide, 0% = 3 mM glutamic acid only

Structure (SMILES) | activity (%)
CCC(C)c1ccc(NC(=O)C2=NC=CN3CCS(=O)(=O)N=C23)cc1 (centres unmarked) [Example 1, N-[4-(1-methylpropyl)phenyl]-3,4-dihydropyrazino[2,1-c][1,2,4]thiadiazine-9-carboxamide 2,2-dioxide] | 66%
O=C(Nc1ccc(C2CC2)cc1)C1=CC=CN2CCS(=O)(=O)N=C12 [Example 4, N-(4-cyclopropylphenyl)-3,4-dihydropyrido[2,1-c][1,2,4]thiadiazine-9-carboxamide 2,2-dioxide] | 85%
Cc1nc2cc(OC3=CC=CN4CCS(=O)(=O)N=C34)ccc2s1 [Example 24, 9-[(2-methyl-1,3-benzothiazol-5-yl)oxy]-3,4-dihydropyrido[2,1-c][1,2,4]thiadiazine 2,2-dioxide] | 78%
CC(C)c1ccc(CCC2=CC=CN3CCS(=O)(=O)N=C23)cc1 [Example 25, 9-{2-[4-(1-methylethyl)phenyl]ethyl}-3,4-dihydropyrido[2,1-c][1,2,4]thiadiazine 2,2-dioxide] | 98%
CC(C)c1ccc(C(=O)NC2=CC=CN3CCS(=O)(=O)N=C23)cc1 [Example 37, N-(2,2-dioxido-3,4-dihydropyrido[2,1-c][1,2,4]thiadiazin-9-yl)-4-(1-methylethyl)benzamide] | 95%
O=S1(=O)CCN2CCCC(c3ccc(Oc4ccccc4)cc3)C2=N1 (centres unmarked) [Example 43, 9-(4-phenoxyphenyl)-3,4,6,7,8,9-hexahydropyrido[2,1-c][1,2,4]thiadiazine 2,2-dioxide] | 81%
O=S1(=O)CCN2C=CC=C(c3ccc4ccccc4c3)C2=N1 [Example 46, 9-naphthalen-2-yl-3,4-dihydropyrido[2,1-c][1,2,4]thiadiazine 2,2-dioxide] | 80%
CC(C)c1ccc(/C=C/C2=CC=CN3CCS(=O)(=O)N=C23)cc1 [Example 51, 9-{(E)-2-[4-(1-methylethyl)phenyl]ethenyl}-3,4-dihydropyrido[2,1-c][1,2,4]thiadiazine 2,2-dioxide] | 87%
CC(C)c1ccc(COC2=CC=CN3CCS(=O)(=O)N=C23)cc1 [Example 52, 9-{[4-(1-methylethyl)benzyl]oxy}-3,4-dihydropyrido[2,1-c][1,2,4]thiadiazine 2,2-dioxide] | 67%
O=S1(=O)CCN2CCCC(c3ccc(-c4ccccc4)s3)C2=N1 (centres unmarked) [Example 57, 9-(5-phenylthiophen-2-yl)-3,4,6,7,8,9-hexahydropyrido[2,1-c][1,2,4]thiadiazine 2,2-dioxide] | 86%
COc1ccc2ccc(OC3CCCN4CCS(=O)(=O)N=C34)cc2c1 (centres unmarked) [Example 60, 9-[(7-methoxynaphthalen-2-yl)oxy]-3,4,6,7,8,9-hexahydropyrido[2,1-c][1,2,4]thiadiazine 2,2-dioxide] | 63%
O=S1(=O)CCN2C=CC=C(c3ccc(OC4CC4)cc3)C2=N1 [Example 70, 9-[4-(cyclopropyloxy)phenyl]-3,4-dihydropyrido[2,1-c][1,2,4]thiadiazine 2,2-dioxide] | 86%
CCC(CC)Oc1ccc(C2=CC=CN3CCS(=O)(=O)N=C23)cc1 [Example 72, 9-[4-(1-ethylpropoxy)phenyl]-3,4-dihydropyrido[2,1-c][1,2,4]thiadiazine 2,2-dioxide] | 80%
O=S1(=O)CCN2C=CC=C(c3ccc(N4CCCC4)cc3)C2=N1 [Example 80, 9-(4-pyrrolidin-1-ylphenyl)-3,4-dihydropyrido[2,1-c][1,2,4]thiadiazine 2,2-dioxide] | 88%
O=S1(=O)CCN2C=CC=C(c3ccc(OCc4cccc(F)c4)cc3)C2=N1 [Example 82, 9-{4-[(3-fluorobenzyl)oxy]phenyl}-3,4-dihydropyrido[2,1-c][1,2,4]thiadiazine 2,2-dioxide] | 65%
O=S1(=O)CCN2CCCC(c3ccc(OCc4cccc(F)c4)cc3)C2=N1 (centres unmarked) [Example 83, 9-{4-[(3-fluorobenzyl)oxy]phenyl}-3,4,6,7,8,9-hexahydropyrido[2,1-c][1,2,4]thiadiazine 2,2-dioxide] | 57%
O=S1(=O)CCN2C=CC=C(c3ccc(Oc4cccc(Cl)c4)cc3)C2=N1 [Example 85, 9-[4-(3-chlorophenoxy)phenyl]-3,4-dihydropyrido[2,1-c][1,2,4]thiadiazine 2,2-dioxide] | 84%
O=S1(=O)CCN2CCCC(c3ccc(Oc4ccccc4C(F)(F)F)cc3)C2=N1 (centres unmarked) [Example 86, 9-{4-[2-(trifluoromethyl)phenoxy]phenyl}-3,4,6,7,8,9-hexahydropyrido[2,1-c][1,2,4]thiadiazine 2,2-dioxide] | 67%
O=S1(=O)CCN2C=CC=C(c3ccc(O)cc3)C2=N1 [Example 87, 4-(2,2-dioxido-3,4-dihydropyrido[2,1-c][1,2,4]thiadiazin-9-yl)phenol] | 51%
O=S1(=O)CCN2C=CC=C(c3ccc(OC4CCCCCC4)cc3)C2=N1 [Example 88, 9-[4-(cycloheptyloxy)phenyl]-3,4-dihydropyrido[2,1-c][1,2,4]thiadiazine 2,2-dioxide] | 75%
O=S1(=O)CCN2C=C(F)C=C(c3ccc(OC4CCCCC4)cc3)C2=N1 [Example 89, 9-[4-(cyclohexyloxy)phenyl]-7-fluoro-3,4-dihydropyrido[2,1-c][1,2,4]thiadiazine 2,2-dioxide] | 85%
COc1cccc(Oc2ccc(C3=CC=CN4CCS(=O)(=O)N=C34)cc2)c1 [Example 90, 9-[4-(3-methoxyphenoxy)phenyl]-3,4-dihydropyrido[2,1-c][1,2,4]thiadiazine 2,2-dioxide] | 78%
O=S1(=O)CCN2C=CC=C(c3ccc(OC4CCC4)cc3)C2=N1 [Example 91, 9-[4-(cyclobutyloxy)phenyl]-3,4-dihydropyrido[2,1-c][1,2,4]thiadiazine 2,2-dioxide] | 81%
O=S1(=O)CCN2C=CN=C(c3ccc(OC4CCCCC4)nc3)C2=N1 [Example 94, 9-[6-(cyclohexyloxy)pyridin-3-yl]-3,4-dihydropyrazino[2,1-c][1,2,4]thiadiazine 2,2-dioxide] | 71%
O=S1(=O)CCN2CCCC(c3ccc(-c4ccccc4)c(F)c3)C2=N1 (centres unmarked) [Example 96, 9-(2-fluorobiphenyl-4-yl)-3,4,6,7,8,9-hexahydropyrido[2,1-c][1,2,4]thiadiazine 2,2-dioxide] | 74%
O=S1(=O)CCN2CCCC(c3ccc(-c4ccccc4)c(F)c3)C2=N1 (centres unmarked) [Example 97, 9-(2-fluorobiphenyl-4-yl)-3,4,6,7,8,9-hexahydropyrido[2,1-c][1,2,4]thiadiazine 2,2-dioxide] | 86%
COc1cccc(Oc2ccc(C3CCCN4CCS(=O)(=O)N=C34)cc2)c1 (centres unmarked) [Example 98, 9-[4-(3-methoxyphenoxy)phenyl]-3,4,6,7,8,9-hexahydropyrido[2,1-c][1,2,4]thiadiazine 2,2-dioxide] | 71%
